“And” between values parts separate entries of the source, which are not always exact repeats. Equal values may be shown once. Read-outs that look alike come from different tables or passages of the source. Values belong to the compound of their own block, whether it stands above or below them.
Experiments:
[1] = for DN*AUC0-24 / DN*AUClast / DN*Cmax / DN* AUC∞: dose normalized
clinical [2] = settings: male, human, plasma, oral, 120 mg
clinical [3] = settings: human, in vivo, oral, spread in brackets; for AUC(0-inf): AUCinf
[4] = healthy subjects
clinical [5] = settings: human, oral, 560 mg
[6] = Ibrutinib in plasma, Day 1, 120 mg Ibrutinib alone, geom. mean
[7] = Ibrutinib in plasma, Day 1, 120 mg Ibrutinib alone, mean
[8] = Ibrutinib in plasma, Day 1, 120 mg Ibrutinib alone, median
[9] = Ibrutinib in plasma, Day 1, 120 mg Ibrutinib alone, n=12, geom. mean
[10] = Ibrutinib in plasma, Day 1, 120 mg Ibrutinib alone, n=12, mean
[11] = Ibrutinib in plasma, Day 1, 120 mg Ibrutinib alone, not dose normalized, mean
[12] = Ibrutinib in plasma, Day 7, 40 mg Ibrutinib + ketoconazole, geom. mean
[13] = Ibrutinib in plasma, Day 7, 40 mg Ibrutinib + ketoconazole, mean
[14] = Ibrutinib in plasma, Day 7, 40 mg Ibrutinib + ketoconazole, median
[15] = 560 mg, Ibrutinib 560 mg alone, fasted, n=8
[16] = 560 mg, Ibrutinib 560 mg alone, fed, n=8
[17] = Ibrutinib 140 mg + grapefruit juice, fed, n=8
[18] = PCI-45227 in plasma, Day 1, 120 mg Ibrutinib alone, geom. mean
[19] = PCI-45227 in plasma, Day 1, 120 mg Ibrutinib alone, mean
[20] = PCI-45227 in plasma, Day 1, 120 mg Ibrutinib alone, median
[21] = PCI-45227 in plasma, Day 1, 120 mg Ibrutinib alone, not dose normalized, mean
[22] = PCI-45227 in plasma, Day 7, 40 mg Ibrutinib + ketoconazole, geom. mean
[23] = PCI-45227 in plasma, Day 7, 40 mg Ibrutinib + ketoconazole, mean
[24] = PCI-45227 in plasma, Day 7, 40 mg Ibrutinib + ketoconazole, median

Compound: C=CC(=O)N1CCC[C@@H](n2nc(-c3ccc(Oc4ccccc4)cc3)c3c(N)ncnc32)C1 [Ibrutinib, 1-((R)-3-(4-amino-3-(4-phenoxyphenyl)-1H-pyrazolo[3,4-d]pyrimidin-1-yl)-piperidin-1-yl)prop-2-en-1-one]
- DN*AUC0-24 [1, 6]: 18.7 ng·h/mL
- DN*AUClast [1, 6]: 20.4 ng·h/mL
- DN*Cmax [1, 6]: 3.33 ng/mL
- DN*AUC0-24 [1, 7]: 21.3 ng·h/mL
- DN*AUClast [1, 7]: 23.8 ng·h/mL
- DN*Cmax [1, 7]: 3.92 ng/mL
- DN*AUC0-24 [1, 8]: 18.5 ng·h/mL
- DN*AUClast [1, 8]: 19.2 ng·h/mL
- DN*Cmax [1, 8]: 3.57 ng/mL
- DN* AUC∞ [1, 9]: 23.7 ng·h/mL
- DN* AUC∞ [1, 10]: 28.1 ng·h/mL
- tlast [1, 6]: 30.93 h
- tlast [1, 7]: 34.00 h
- tlast [1, 8]: 24.01 h
- AUMC∞ [1, 9]: 576 h · h · ng/mL
- MRT [1, 9]: 8.11 h
- AUMC∞ [1, 10]: 857 h · h · ng/mL
- MRT [1, 10]: 8.93 h
- AUMC∞ ([1]; Ibrutinib in plasma, Day 1, 120 mg Ibrutinib alone, n=12, median): 693 h · h · ng/mL
- AUC0-24 [1, 11]: 63.8 ng·h/mL
- Cmax [1, 11]: 11.8 ng/mL
- AUC0-24 [1, 12]: 464 ng·h/mL
- AUClast [1, 12]: 488 ng·h/mL
- AUC∞ [1, 12]: 491 ng·h/mL
- AUMC∞ [1, 12]: 3235 h · h · ng/mL
- Cmax [1, 12]: 95.2 ng/mL
- MRT [1, 12]: 6.6 h
- tlast [1, 12]: 40.51 h
- AUC0-24 [1, 13]: 510 ng·h/mL
- AUClast [1, 13]: 533 ng·h/mL
- AUC∞ [1, 13]: 536 ng·h/mL
- AUMC∞ [1, 13]: 3504 h · h · ng/mL
- Cmax [1, 13]: 108 ng/mL
- MRT [1, 13]: 6.8 h
- tlast [1, 13]: 42.68 h
- AUClast [1, 14]: 559 ng·h/mL
- AUMC∞ [1, 14]: 3635 h · h · ng/mL
- tlast [1, 14]: 48.00 h
- Ibrutinib systemic exposure when dosed concomitantly with ketoconazole ([1]; healthy subjects): significantly affected
- AUC(0-inf) (clinical [2]): 22.4 ng·h/mL
- MRT (clinical [2]): 9.13 h
- AUC(0-t) (clinical [3]; 560 mg, AUC0-24 h, Ibrutinib 560 mg alone, fasted, n=8): 229 ng·h/mL
- AUC(0-t) (clinical [3]; 560 mg, AUC0-24 h, Ibrutinib 560 mg alone, fed, n=7): 544 ng·h/mL
- AUC(0-inf) (clinical [3]; [15]): 368 ng·h/mL
- AUC(0-inf) (clinical [3]; [16]): 659 ng·h/mL
- AUC(0-t) (clinical [3]; 560 mg, AUClast, Ibrutinib 560 mg alone, fasted, n=8): 289 ng·h/mL
- AUC(0-t) (clinical [3]; 560 mg, AUClast, Ibrutinib 560 mg alone, fed, n=8): 606 ng·h/mL
- Cmax (clinical [3]; [15]): 245 ng/mL
- Cmax (clinical [3]; [16]): 128 ng/mL
- AUC(0-t) (clinical [3]; AUC0-24 h, Ibrutinib 140 mg + grapefruit juice, fed, n=7): 339 ng·h/mL
- AUC(0-inf) (clinical [3]; [17]): 334 ng·h/mL
- AUC(0-t) (clinical [3]; AUClast, Ibrutinib 140 mg + grapefruit juice, fed, n=8): 325 ng·h/mL
- Cmax (clinical [3]; [17]): 125 ng/mL
- Ibrutinib systemic exposure when dosed concomitantly with rifampin [4]: significantly affected
- AUC(0-t) (clinical [5]; blood): 259 ng·h/mL
- Cmax (clinical [5]; blood): 42 ng/mL
- AUC(0-inf) (clinical [5]; in vivo): 397 ng·h/mL

- DN* AUC∞ [1, 18]: 98.2 ng·h/mL
- DN*AUC0-24 [1, 18]: 76.6 ng·h/mL
- DN*AUClast [1, 18]: 96.4 ng·h/mL
- DN*Cmax [1, 18]: 8.81 ng/mL
- DN* AUC∞ [1, 19]: 103 ng·h/mL
- DN*AUC0-24 [1, 19]: 82.2 ng·h/mL
- DN*AUClast [1, 19]: 101 ng·h/mL
- DN*Cmax [1, 19]: 9.70 ng/mL
- DN* AUC∞ [1, 20]: 101 ng·h/mL
- DN*AUC0-24 [1, 20]: 81.3 ng·h/mL
- DN*AUClast [1, 20]: 100 ng·h/mL
- DN*Cmax [1, 20]: 9.45 ng/mL
- AUMC∞ [1, 18]: 4122 h · h · ng/mL
- CL/F [1, 18]: 407 L/h
- MRT [1, 18]: 14.0 h
- T½ term [1, 18]: 11.2 h
- tlast [1, 18]: 65.80 h
- tmax [1, 18]: 2.25 h
- λz [1, 18]: 0.0619 h⁻¹
- AUMC∞ [1, 19]: 4297 h · h · ng/mL
- CL/F [1, 19]: 428 L/h
- MRT [1, 19]: 14.3 h
- T½ term [1, 19]: 11.41 h
- tlast [1, 19]: 66.7 h and 66.67 h
- tmax [1, 19]: 2.42 h
- λz [1, 19]: 0.0630 h⁻¹
- AUMC∞ [1, 20]: 3979 h · h · ng/mL
- CL/F [1, 20]: 395 L/h
- MRT [1, 20]: 13.6 h
- T½ term [1, 20]: 10.74 h
- tlast [1, 20]: 72.00 h
- tmax [1, 20]: 2.00 h
- λz [1, 20]: 0.0645 h⁻¹
- AUC0-24 [1, 21]: 247 ng·h/mL
- Cmax [1, 21]: 29.1 ng/mL
- AUC0-24 [1, 22]: 53.4 ng·h/mL
- AUClast [1, 22]: 82.7 ng·h/mL
- AUC∞ [1, 22]: 89.4 ng·h/mL
- AUMC∞ [1, 22]: 2216 h · h · ng/mL
- CL/F [1, 22]: 448 L/h
- Cmax [1, 22]: 3.63 ng/mL
- MRT [1, 22]: 24.8 h
- T½ term [1, 22]: 17.49 h
- tlast [1, 22]: 67.30 h
- tmax [1, 22]: 3.77 h
- λz [1, 22]: 0.0396 h⁻¹
- AUC0-24 [1, 23]: 54.5 ng·h/mL
- AUClast [1, 23]: 85.2 ng·h/mL
- AUC∞ [1, 23]: 92.2 ng·h/mL
- AUMC∞ [1, 23]: 2416 h · h · ng/mL
- CL/F [1, 23]: 461 L/h
- Cmax [1, 23]: 3.71 ng/mL
- MRT [1, 23]: 25.4 h
- T½ term [1, 23]: 17.99 h
- tlast [1, 23]: 68.01 h
- tmax [1, 23]: 3.95 h
- λz [1, 23]: 0.0407 h⁻¹
- AUC0-24 [1, 24]: 53.8 ng·h/mL
- AUClast [1, 24]: 82.7 ng·h/mL
- AUC∞ [1, 24]: 89.6 ng·h/mL
- AUMC∞ [1, 24]: 2177 h · h · ng/mL
- CL/F [1, 24]: 447 L/h
- Cmax [1, 24]: 3.74 ng/mL
- MRT [1, 24]: 24.8 h
- T½ term [1, 24]: 16.61 h
- tlast [1, 24]: 72.00 h
- tmax [1, 24]: 4.00 h
- λz [1, 24]: 0.0417 h⁻¹
Compound: Nc1ncnc2c1c(-c1ccc(Oc3ccccc3)cc1)nn2[C@@H]1CCCN(C(=O)C(O)CO)C1 (some centres unmarked) [PCI-45227]
